Data as given in patent US12280148B2, “Composition for promoting extracellular vesicle production containing peptide derived from noxa protein and method for producing extracellular vesicles by using same” (Exocalibre Therapeutics Co., Ltd., priority 2020, dated 2025).

Experiments:
Format in all cases: cell-based, human
HeLa cell line [1] = test: Production of extracellular vesicles, observed by optical microscope (bright field); settings: solution of Example 1 (250 mM sucrose), peptide final concentration 20 μM, after 10 minutes
Experimental: After the HeLa cell line was cultured in a 6-well plate, the culture was removed, and then the HeLa cell line was treated with the solution in Example 1.
The control group was not treated with any peptide, and the experiment group was treated with eMTDΔ4 peptide of SEQ ID NO: 2 (final concentration: 20 μM). After 10 minutes, the generation of extracellular vesicles was observed by an optical microscope (bright field), and the observation results are shown in FIG. 1.
Extracellular vesicle production was carried out by the experimental method of Experimental Example 2-1 using the R(8):MTD peptide of SEQ ID NO: 4 and the solutions of Example 1 and Comparative Examples 1 to 18, and the results are shown in FIGS. 2A to 2S.
Extracellular vesicle production was carried out by the experimental method of Example 2-1 using the R(8):MTD peptide of SEQ ID NO: 4 and the solutions of Examples 1 to 3 on Table 3, and the results are shown in FIGS. 3A to 3C.

HeLa cell line [2] = test: Extracellular vesicle morphology, EGFP-HSP90 transfected cells, confocal microscope; settings: HeLa transfected with pEGFP-HSP90; solution of Example 1; 20 μM; after 10 minutes
Experimental: In order to transfect the HSP90 protein, an exosome indicator, into the HeLa cell line, the HeLa cell line was cultured overnight in a 6-well plate, and then treated with a plasmid into which Effectene and pEGFP-HSP90 were cloned, and after 4 hours, the culture was replaced.
The next day, the culture was removed from the HeLa cell line, and the solution of Example 1 was added. A control group was not treated with any peptide, and an experiment group was treated with the eMTDΔ4 peptide of SEQ ID NO: 2 (final concentration: 20 μM). The HSP90 protein was excited using an argon laser of 488 nm. After 10 minutes, the control group and the experiment group were observed using a confocal microscope (Leica TCS SP5 Microsystems), and the results are shown in FIG. 4.

HeLa cell line [3] = test: Extracellular vesicle production, mEmerald-CD9 / mCherry-CD81 transfected cells, confocal imaging every 2 seconds; settings: solution of Example 1, 20 μM
Experimental: The HeLa cell line was cultured in a 12-well plate overnight, and in order to identify the CD9 protein, an extracellular vesicle indicator, the HeLa cell line was treated with a plasmid into which Effectene and mEmerald-CD9 were cloned, and after 4 hours, the culture was replaced.
The next day, the culture was removed from the HeLa cell line, and the HeLa cell line was treated with the solution of Example 1. After each HeLa cell line was treated with the eMTDΔ4 peptide (final concentration: 20 μM), a laser having a wavelength of 488 nm was used to excite mEmerald-CD9.
In order to identify the CD81 protein, an extracellular vesicle indicator, the same procedure as in the method for observing the CD9 protein was performed except that the HeLa cells were treated with a plasmid into which mCherry-CD81 instead of mEmerald-CD9 was cloned and mCherry-CD81 was excited using a laser having a wavelength of 561 nm, and the results are shown in FIG. 5B.

293-HEK cell line [4] = test: Extracellular vesicle output quantified by Bradford solution
Experimental: The 293-HEK cell line was cultured in a 6-well plate at a rate of 2×10^5 cells/mL, and the next day, the cell line was treated with the solution of Example 1 and a peptide of any one of SEQ ID NOs: 1 to 21. […], the solution was removed, followed by centrifugation at an RCF of 12000, and the extracellular vesicles were quantified using the supernatant by Bradford solution.

293-HEK cell line [5] = test: Extracellular vesicle size and quantity by Nanoparticle Tracking Analysis (NTA); settings: 50-fold diluted, solution of Example 1, peptide 20 μm, after 20 minutes
Experimental: After the 293-HEK cell line was cultured to 90% confluency (about 2×10^7 cells) in a 10-cm culture dish, the culture was removed, and the cells were treated with the eMTDΔ4 peptide (final concentration: 20 μm), which has been dissolved in 5 ml of the solution of Example 1. After 20 minutes, the solution was removed, followed by centrifugation at an RCF of 12000, and then the size and quantity of extracellular vesicles were measured using a Nanoparticle Tracking Analysis (NTA) system (Nanosight LM10, Malvern Instruments).

293-HEK cell line [6] = test: Loading of recombinant TRAIL protein in extracellular vesicles, SDS-acrylamide gel; settings: Recombinant TRAIL + (2 μg/ml), Peptide + (25 μM), solution of Example 1
Experimental: After the 293-HEK cell line was cultured to 90% confluency in a 6-well plate, the culture was removed, and the cell line was treated with the eMTDΔ4 peptide (final concentration: 25 μM) and the recombinant TRAIL, which have been dissolved to concentrations of 25 μM and 2 μg/ml in the solution of Example 1, respectively. The supernatant was collected, and PEG (final concentration: 8%) was added, followed by centrifugation at an RCF of 12000 for 10 minutes, thereby settling extracellular vesicles, and the extracellular vesicles were loaded on the SDS-acrylamide gel to check the TRAIL protein.

293-HEK cell line [7] = test: Loading of plasmid DNA in extracellular vesicles, agarose gel electrophoresis; settings: peptide 25 μM, PUC19 3 μg/ml, EGFP-C1 6 μg/ml, solution of Example 1
Experimental: After the 293-HEK cell line was cultured to 90% confluency in a 6-well plate, the culture was removed, and the cell line was treated with the eMTDΔ4 peptide (final concentration: 25 μM) and plasmid DNA (PUC19 3 μg/ml, EGFP-C1 6 μg/ml), which have been dissolved in the solution of Example 1.
1.15 ml of the supernatant was collected and 0.35 ml of Qiagen buffer P3 was added, thereby making a total volume of 1.5 ml, of which 0.75 ml was then passed through the DNA miniprep column (Qiagen), and the passed solution was purified with phenol and precipitated with ethanol.
After 30 μl of DNA bound to the column and 30 μl of DNA precipitated with ethanol were dissolved in water, 10 μl of DNA bound to the column and 10 μl of DNA precipitated with ethanol were subjected to agarose gel electrophoresis, and then stained with EtBr.

HeLa cell line [8] = test: Loading of doxorubicin in extracellular vesicles, confocal microscope; settings: HeLa expressing EGFP-HSP90; peptide 25 μM; doxorubicin 100 μM; solution of Example 1; after 10 minutes
Experimental: Doxorubicin, which is a drug passing through cell membranes well, is used to treat cancers, such as breast cancer, bladder cancer, Kaposi's sarcoma, lymphoma, or acute lymphoblastic leukemia. First, the HeLa cell line was cultured in a 12-well plate overnight, then transfected with a plasmid expressing EGFP-HSP90 using effectene, and then the culture was replaced after 4 hours. The next day, the culture was removed from the HeLa cell line to prepare a cell line.
(§1) The control group was treated with only doxorubicin without any peptide, and the experiment group was treated with the eMTDΔ4 peptide (final concentration: 25 μM) and doxorubicin (final concentration: 100 μM), which have been dissolved in the solution of Example 1, and then after 10 minutes, the groups were observed by a confocal microscope.

HeLa cell line [9] = test: Loading of propidium iodide (PI) in extracellular vesicles, confocal microscope; settings: HeLa transfected with HSP90; peptide 25 μM; 5 μg/ml PI; solution of Example 1; after 10 minutes
Experimental: Propidium iodide (PI), which is a drug poorly passing through cell membranes, is a fluorescent substance capable of being used to stain cells. First, the HSP90 protein was transfected into the HeLa cell line to prepare a cell line.
as §1, with “PI” for “doxorubicin”, “5 μg/ml PI,” for “doxorubicin (final concentration: 100 μM),”, “been in combination” for “been”

Sequence: KLNFRQKLLNLISKLF (eMTDdelta4) [eMTDΔ4, Noxa protein-derived peptide, 16aa]
- generation of extracellular vesicles (HeLa cell line [1]): small extracellular vesicle particles were formed and settled on the bottom of the plate
- cell morphology (HeLa cell line [2]): the cell morphology was damaged
- extracellular vesicles containing HSP90 protein (HeLa cell line [2]): extracellular vesicles containing the HSP90 protein were settled on the bottom of the plate
- time to release of extracellular vesicles to the extracellular matrix (HeLa cell line [3]): within a few seconds after generation
- release of CD9 and CD81 proteins (extracellular vesicle indicators) (HeLa cell line [3]; observed for 10 minutes): CD9 and CD81 proteins were released into the extracellular matrix
- Amount of proteins contained in extracellular vesicles (293-HEK cell line [4]; solution of Example 1, peptide 10 μM): 4.93 µg/µL
- Amount of proteins contained in extracellular vesicles (293-HEK cell line [4]; solution of Example 1, peptide 20 μM): 6.40 µg/µL
- Amount of proteins contained in extracellular vesicles (293-HEK cell line [4]; solution of Example 1, peptide 40 μM): 7.56 µg/µL
- Quantity of extracellular vesicles (293-HEK cell line [5]): 7.44e+08 ± 6.51e+07 mL⁻¹
- Protein detected or not (TRAIL in extracellular vesicles) (293-HEK cell line [6]): ◯
- loading of plasmid DNA in extracellular vesicles (293-HEK cell line [7]): can be loaded in the extracellular vesicles
- loading of doxorubicin in extracellular vesicles (HeLa cell line [8]): the generated extracellular vesicles contained doxorubicin as well as the HSP90 protein
- loading of propidium iodide (PI) in extracellular vesicles (HeLa cell line [9]): the generated extracellular vesicles contained PI as well as the HSP90 protein
